Experimental data from patent publication US20250110133A1, “METHOD AND KIT FOR PREDICTING DRUG EFFICACY OF LUNG CANCER TREATMENT AND METHOD FOR TREATING LUNG CANCER” (National Health Research Institutes, priority 2023, published 2025).
Entries after “also recorded” stand apart in the source; their conditions may differ. Where two headings read alike, the source gives them in different places.

How the values were obtained:
PC9 cells [1] = assay: Colony formation assay for gefitinib sensitivity; assay type: cell-based, human; conditions: 10-day treatment
Protocol: Data are presented as mean±standard error of mean, n=3. Differences between shLDOC1 and shCtrl at each indicated concentration are analyzed using Student's t test; * p<0.05 and ** p<0.01.

HCC827 cells [2] = assay: cells; conditions: Homo sapiens, HCC827, 72 h, read-out: half-maximal inhibitory concentration (IC50)
Protocol: (§1) The HCC827 cell line is provided by Dr. Yi-Rong Chen from the Institute of Molecular and Genomic Medicine, National Health Research Institutes, Taiwan. […] PC9 and HCC827 cells are maintained in RPMI1640 (Cytiva). […] All cells are cultured in media containing 10% FBS (Gibco), 1% penicillin (Thermo Fisher, Waltham, MA, USA), and 1% streptomycin (Thermo Fisher); the cells are incubated at 37° C. in a humidified chamber with 5% CO2. […] The cells are checked for Mycoplasma (BioSmart, Seoul, Republic of Korea) upon thawing, and throughout the experimental period they consistently tested negative for Mycoplasma.
(§2) Cells are seeded at a density of 5×10^3 per well in a 96-well plate. […] An appropriate amount of DMSO is also added to the control cells. After 72 h of treatment, the cells are incubated with a solution of MTT (3-(4,5-dimethylthiazol-2-yl)-2,5-diphenyltetrazolium bromide) (Sigma-Aldrich) for 4 h at 37° C. Subsequently, the medium is aspirated, and 100 μL DMSO is added to solubilize the formazan. Colored formazan converted from MTT using viable cells is measured at 570 nm with a microplate reader (BioRad). Experiments are performed in triplicate. IC50 values are determined using the scientific and statistical software GraphPad Prism 10.0.0.

PC9 cells [3] = test system: PC9 cells
Protocol: (§3) Cells were seeded in 96-well cell culture plates and treated the next day with the indicated concentrations of indicated EGFR-TKI. After 3 days, cell numbers were determined with MTT assay.
(§4) All cells are cultured in media containing 10% FBS (Gibco), 1% penicillin (Thermo Fisher, Waltham, MA, USA), and 1% streptomycin (Thermo Fisher); the cells are incubated at 37° C. in a humidified chamber with 5% CO2.
as §2

HCC827 cells [4] = conditions: read-out: half-maximal inhibitory concentration (IC50)
Protocol: as §1, §2

PC9 cells [5] = assay: cells; conditions: Homo sapiens, PC-9, 72 h, read-out: half-maximal inhibitory concentration (IC50)
Protocol: as §3, §4, §2

Row | Compound | colony formation under drug treatment (PC9 cells [1]; LDOC1-depleted (shLDOC1) PC9 cells) | colony formation under drug treatment (PC9 cells [1]; PC9-shCtrl cells) | IC50 (HCC827 cells [2]) [nM] | IC50 / inhibitory effect in shLDOC1 cells compared with shCtrl cells (PC9 cells [3]) | IC50 (HCC827 cells [4]) [nM] | IC50 (PC9 cells [5]) [nM]
1 | COc1cc2ncnc(Nc3ccc(F)c(Cl)c3)c2cc1OCCCN1CCOCC1 [gefitinib] | increased the number of cell colonies; also recorded: survive and form colonies | no colonies |  |  |  | 
2 | C=CC(=O)Nc1cc(Nc2nccc(-c3cn(C)c4ccccc34)n2)c(OC)cc1N(C)CCN(C)C [osimertinib] |  |  | 1800 | almost the same inhibitory effect | 2300 | 900
